Test results published in patent publication US20250170130A1, “MODULATORS OF MYC FAMILY PROTO-ONCOGENE PROTEIN” (Nalo Therapeutics, priority 2022, published 2025).

How the values were obtained:
MycN = target: T1, MycN (Homo sapiens, UniProt P04198); experiment: Degradation of MycN protein in SK-N-BE(2) cells, JESS/Western blot of lysates; type: cell-based; conditions: SKNBE2, 24 h, SKNBE2 cells, 24 h; for Dmax at 0.5 µM: read-out: % Degradation of MycN (SKNBE2) 24 h, 0.5 μM; for Dmax at 1 µM: read-out: % Degradation of MycN (SKNBE2) 24 h, 1 μM; for Dmax at 3 µM: read-out: % Degradation of MycN (SKNBE2) 24 h, 3 μM; for Dmax at 6 µM: read-out: % Degradation of MycN (SKNBE2) 24 h, 6 μM
T1 construct: endogenous in cells; host or cells: SK-N-BE(2)
T1 sequence (P04198 1-464): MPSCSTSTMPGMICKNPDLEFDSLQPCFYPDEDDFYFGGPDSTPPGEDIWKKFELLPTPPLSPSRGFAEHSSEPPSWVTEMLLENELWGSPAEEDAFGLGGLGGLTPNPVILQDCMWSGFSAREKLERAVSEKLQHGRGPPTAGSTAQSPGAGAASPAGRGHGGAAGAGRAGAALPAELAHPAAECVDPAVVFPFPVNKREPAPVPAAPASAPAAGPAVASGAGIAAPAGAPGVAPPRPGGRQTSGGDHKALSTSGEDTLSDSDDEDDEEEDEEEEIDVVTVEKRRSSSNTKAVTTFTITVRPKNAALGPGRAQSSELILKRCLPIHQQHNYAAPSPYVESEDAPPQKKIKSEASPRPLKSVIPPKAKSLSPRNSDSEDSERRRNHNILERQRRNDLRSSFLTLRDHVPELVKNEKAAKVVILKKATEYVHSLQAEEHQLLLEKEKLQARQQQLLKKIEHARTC
Experimental: (§1) For L363 cells (suspension), 1E6 cells were plated into each well of a 6 well plate. For SK-N-BE(2) cells (adherent), 5E5 cells were plated into each well of a 6 well dish. Cells were cultured for 24 hrs then treated with exemplary compounds at 0.1, 0.5, 1.0, 3.0 and 6.0 mM final assay concentrations plus DMSO control. All compounds were diluted to 10 mM in DMSO. Cells were treated with the compound for 24 hrs, then for both cell types, media containing cells were removed from wells into a 15 ml centrifuge tube, and remaining adherent SK-N-BE(2) cells were also scraped from the wells into the appropriate tubes. Tubes were centrifuged, cells were washed with PBS then re-centrifuged to pellet cells. A RIPA buffer cocktail was added to the cells on ice for 5 mins. Cell lysates were clarified by centrifugation and stored at −80 degrees until required. BCA assay was performed on each lysate to determine the protein concentration.
(§2) Once an appropriate lysate concentration and antibody concentration was determined, samples were screened in the JESS technology (Protein Simple, San Jose, CA—https://www.proteinsimple.com/jess.html).
(§3) Target protein antibodies (n-myc and c-myc) were detected in the chemi-luminescence channel and loading controls (tubulin and GAPDH) were detected using a Near Infra Red (NIR) labeled secondary antibody.
For SK-N-EB2 adherent cells, 5E5 cells in 1.9 mls media were plated into 6 well dishes and incubated for 24 hrs. Exemplary compounds were added (100 ul, 1 in 20 dilution in media) to each well (final assay concentration 6, 3, 1 and […]) together with DMSO control wells and incubated for 24 hrs. Cells were scrapped off the plate, centrifuged, washed with PBS, centrifuged, then a RIPA buffer cocktail added to the cells (100 ul), centrifuged and stored at −80 for later analysis. For L363 suspension cells, 1E6 cells were plated into 24 well dishes (950 ul media) and incubated for 24 hrs. Exemplary compounds were added (50 ul, 1 in 20 dilution in media) to each well (final assay concentration 6, 3, 1 and […]) together with DMSO control wells and incubated for 24 hrs. Cells were aspirated into tubes, centrifuged, washed with PBS, centrifuged, then a RIPA buffer cocktail added to the cells (100 ul), centrifuged and stored at −80 for later analysis.
(§4) For Western blot, a BCA (total protein) assay was run on all samples, these were then run in batches of 5 compounds plus control (DMSO) on each Western blot run—n-myc and c-myc were run in separate experiments in the chemiluminescence channel. Both tubulin and GAPDH were run as loading controls in all lanes in the near infra red channel.

MycC = target: T2, MycC (Homo sapiens, UniProt P01106); experiment: Degradation of MycC protein in L363 cells, JESS/Western blot of lysates; type: cell-based; conditions: L-363, 24 h, L-363 cells, 24 h; for Dmax at 0.5 µM: read-out: % Degradation of MycC (L-363) 24 h, 0.5 μM; for Dmax at 1 µM: read-out: % Degradation of MycC (L-363) 24 h, 1 μM; for Dmax at 3 µM: read-out: % Degradation of MycC (L-363) 24 h, 3 μM; for Dmax at 6 µM: read-out: % Degradation of MycC (L-363) 24 h, 6 μM
T2 construct: endogenous in cells; host or cells: L363
T2 sequence (P01106 whole entry): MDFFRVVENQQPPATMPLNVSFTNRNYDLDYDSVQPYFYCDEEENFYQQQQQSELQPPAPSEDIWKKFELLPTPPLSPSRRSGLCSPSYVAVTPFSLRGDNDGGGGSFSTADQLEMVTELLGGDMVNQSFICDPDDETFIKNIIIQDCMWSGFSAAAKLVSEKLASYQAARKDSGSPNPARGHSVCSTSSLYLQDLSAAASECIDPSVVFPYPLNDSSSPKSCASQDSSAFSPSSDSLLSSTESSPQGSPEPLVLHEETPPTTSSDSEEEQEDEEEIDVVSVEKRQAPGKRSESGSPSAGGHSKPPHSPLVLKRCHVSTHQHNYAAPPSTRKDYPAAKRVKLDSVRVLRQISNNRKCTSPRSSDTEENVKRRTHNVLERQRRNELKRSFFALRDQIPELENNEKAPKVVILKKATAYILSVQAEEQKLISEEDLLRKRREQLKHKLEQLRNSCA
Experimental: as §1, with “Cells were cultured for 24 hrs then treated with exemplary compounds at 0.1, 0.5, 1.0, 3.0 and 6.0 mM final assay concentrations plus DMSO control.” left out
as §2, §3
For SK-N-EB2 adherent cells, 5E5 cells in 1.9 mls media were plated into 6 well dishes and incubated for 24 hrs. […] Cells were scrapped off the plate, centrifuged, washed with PBS, centrifuged, then a RIPA buffer cocktail added to the cells (100 ul), centrifuged and stored at −80 for later analysis. For L363 suspension cells, 1E6 cells were plated into […] (950 ul media) and incubated for 24 hrs. […] Cells were aspirated into tubes, centrifuged, washed with PBS, centrifuged, then a RIPA buffer cocktail added to the cells (100 ul), centrifuged and stored at −80 for later analysis.
as §4

Dmax at 0.5 µM (MycN) [%]	Dmax at 1 µM (MycN) [%]	Dmax at 3 µM (MycN) [%]	Dmax at 6 µM (MycN) [%]	Dmax at 0.5 µM (MycC) [%]	Dmax at 1 µM (MycC) [%]	Dmax at 3 µM (MycC) [%]	Dmax at 6 µM (MycC) [%]	Compound
			20 to 49	< 20	< 20	20 to 49	20 to 49	CN(C)CC1CCN(c2nccc(Nc3cc(C4CC4)[nH]n3)n2)CC1 [Compound 5, N-(5-Cyclopropyl-1H-pyrazol-3-yl)-2-(4-((dimethylamino)methyl)piperidin-1-yl)pyrimidin-4-amine]
< 20	< 20	50 to 79	80 to 100		< 20			CNC[C@H]1CCN(c2nccc(Nc3cc(C4CC4)[nH]n3)n2)C1 [Compound 7, (R)—N-(5-Cyclopropyl-1H-pyrazol-3-yl)-2-(3-((methylamino)methyl)pyrrolidin-1-yl)pyrimidin-4-amine]
		< 20		< 20	< 20	20 to 49		CN[C@H]1CCN(c2nccc(Nc3cc(C4CC4)[nH]n3)n2)C1 [Compound 8, (S)—N-(5-cyclopropyl-1H-pyrazol-3-yl)-2-(3-(methylamino)pyrrolidin-1-yl)pyrimidin-4-amine]
20 to 49	20 to 49	< 20	< 20	20 to 49	20 to 49	20 to 49	80 to 100	CN(C)[C@H]1CCN(c2nccc(Nc3cc(C4CC4)[nH]n3)n2)C1 [Compound 9, (S)—N-(5-Cyclopropyl-1H-pyrazol-3-yl)-2-(3-(dimethylamino)pyrrolidin-1-yl)pyrimidin-4-amine]
	20 to 49	80 to 100	80 to 100	< 20	< 20		20 to 49	NCC1CCN(c2nccc(Nc3cc(C4CC4)[nH]n3)n2)CC1 [Compound 10, 2-(4-(aminomethyl)piperidin-1-yl)-N-(5-cyclopropyl-1H-pyrazol-3-yl)pyrimidin-4-amine]
< 20	80 to 100	80 to 100	80 to 100			< 20		NC[C@H]1CCN(c2nccc(Nc3cc(C4CC4)[nH]n3)n2)C1 [Compound 11, (R)-2-(3-(Aminomethyl)pyrrolidin-1-yl)-N-(5-cyclopropyl-1H-pyrazol-3-yl)pyrimidin-4-amine]
< 20	80 to 100	80 to 100	80 to 100	< 20	< 20	< 20	< 20	CNC[C@H]1CCCN(c2nccc(Nc3cc(C4CC4)[nH]n3)n2)C1 [Compound 16, N-(5-Cyclopropyl-1H-pyrazol-3-yl)-2-[(3R)-3-(methylaminomethyl)-1-piperidyl]pyrimidin-4-amine]
20 to 49	20 to 49	50 to 79	80 to 100			< 20	80 to 100	CN(C)[C@@H]1CCN(c2nccc(Nc3cc(C4CC4)[nH]n3)n2)C1 [Compound 17, N-(5-cyclopropyl-1H-pyrazol-3-yl)-2-[(3R)-3-(dimethylamino)pyrrolidin-1-yl]pyrimidin-4-amine]

More lines, now with the values behind:

Compound	Dmax at 0.5 µM (MycN) [%]	Dmax at 1 µM (MycN) [%]	Dmax at 3 µM (MycN) [%]	Dmax at 6 µM (MycN) [%]	Dmax at 0.5 µM (MycC) [%]	Dmax at 1 µM (MycC) [%]	Dmax at 3 µM (MycC) [%]	Dmax at 6 µM (MycC) [%]
CN1CC2(C1)CN(c1nccc(Nc3cc(C4CC4)[nH]n3)n1)C2 [Compound 4, N-(5-Cyclopropyl-1H-pyrazol-3-yl)-2-(6-methyl-2,6-diazaspiro[3.3]heptan-2-yl)pyrimidin-4-amine]	< 20	20 to 49	20 to 49	20 to 49	< 20	20 to 49	80 to 100	80 to 100
c1cc(Nc2cc(C3CC3)[nH]n2)nc(N2CC3(CNC3)C2)n1 [Compound 6, N-(5-Cyclopropyl-1H-pyrazol-3-yl)-2-(2,6-diazaspiro[3.3]heptan-2-yl)pyrimidin-4-amine]	< 20	< 20	< 20	< 20	< 20	20 to 49	< 20	20 to 49
CNCC1CCN(c2nccc(Nc3cc(C4CC4)[nH]n3)n2)CC1 [Compound 12, N-(5-Cyclopropyl-1H-pyrazol-3-yl)-2-(4-((methylamino)methyl)piperidin-1-yl)pyrimidin-4-amine]			20 to 49	50 to 79	< 20	< 20	50 to 79	80 to 100
CNCC12CC(C1)N(c1nccc(Nc3cc(C4CC4)[nH]n3)n1)C2 [Compound 14, N-(5-cyclopropyl-1H-pyrazol-3-yl)-2-(4-((methylamino)methyl)-2-azabicyclo[2.1.1]hexan-2-yl)pyrimidin-4-amine]	< 20	20 to 49	20 to 49	80 to 100	20 to 49	80 to 100	80 to 100	80 to 100
CN1C[C@@H]2CN(c3nccc(Nc4cc(C5CC5)[nH]n4)n3)C[C@@H]2C1 [Compound 15, 2-[rac-(3aR,6aS)-2-methyl-1,3,3a,4,6,6a-hexahydropyrrolo[3,4-c]pyrrol-5-yl]-N-(5-cyclopropyl-1H-pyrazol-3-yl)pyrimidin-4-amine]	20 to 49	20 to 49	50 to 79	80 to 100	< 20	20 to 49	20 to 49	20 to 49
c1cc(Nc2cc(C3CC3)[nH]n2)nc(N2C[C@H]3CNC[C@H]3C2)n1 [Compound 18, N-(5-Cyclopropyl-1H-pyrazol-3-yl)-2-[rac-(3aR,6aS)-2,3,3a,4,6,6a-hexahydro-1H-pyrolo[3,4-c]pyrrol-5-yl]pyrimidin-4-amine]	20 to 49	50 to 79	80 to 100	80 to 100	< 20	< 20	< 20	20 to 49
